Data taken from PMC8159111 (Pathogens, 2021).

What was measured:
Type in all cases: cell-based
[1] = Cytotoxicity (CC50) determination, crystal violet assay; settings: African green monkey, Vero E6 cells, Table 4 prints no unit, Figure 4 prints μM, read-out: CC50 (half-maximal cytotoxic concentration)
Experimental: To assess the half maximal cytotoxic concentration (CC50), stock solutions of the test compounds were prepared in 10% DMSO in ddH2O and diluted further to the working solutions with DMEM. The cytotoxic activity of the extracts was tested in VERO-E6 cells by using crystal violet assay as previously described with minor modifications. Briefly, the cells were seeded in 96-well plates (100 µL/well at a density of 3 × 10^5 cells/mL) and incubated for 24 h at 37 °C in a humidified 5% CO2 incubator. After 24 h, cells were treated with various concentrations of the tested compounds in triplicates. Seventy two hours later, the supernatant was discarded, and cell monolayers were fixed with 10% formaldehyde for 1 h at room temperature (RT). The fixed monolayers were then dried and stained with 50 µL of 0.1% crystal violet for 20 min on a bench rocker at RT. The monolayers were then washed, dried and the crystal violet dye in each well was then dissolved with 200 µL of methanol for 20 min on a bench rocker at RT. The absorbance of crystal violet solutions was measured at λmax 570 nm as a reference wavelength using a multi-well plate reader.

[2] = tested on: SARS-CoV-2 "NRC-03-nhCoV" virus; assay: Inhibitory concentration 50 (IC50) determination, reduction of virus-induced cytopathic effect in Vero-E6 cells; settings: Severe acute respiratory syndrome coronavirus 2, Vero C1008, 72 h, against NRC-03-nhCoV in Vero E6, 72 h, CPE reduction, crystal violet; unit not given in Table 4 and Figure 6, Figure 4 and text print μM; read-out: IC50 (half-maximal inhibitory concentration)
Experimental: The IC50 values for the tested compounds were determined as previously described, with minor modifications. Briefly, in 96-well tissue culture plates, 2.4 × 10^4 Vero-E6 cells were distributed in each well and incubated overnight at a humidified 37°C incubator under 5% CO2 condition. The cell monolayers were then washed once with 1× PBS. An aliquot of the SARS-CoV-2 “NRC-03-nhCoV” virus containing 100 TCID50 was incubated with serial diluted compounds and kept at 37 °C for 1 h. The Vero-E6 cells were treated with virus/compound mix and co-incubated at 37 °C in a total volume of 200 µL per well. Untreated cells infected with virus represented the virus control; however, cells that were not treated and not infected were the cell control. Following incubation at 37 °C in 5% CO2 incubator for 72 h, the cells were fixed with 100 μL of 10% paraformaldehyde for 20 min and stained with 0.5% crystal violet in distilled water for 15 min at RT. The crystal violet dye was then dissolved using 100 μL of absolute methanol per well and the optical density of the color was measured at 570 nm using the Anthos Zenyth 200 rt plate reader (Anthos Labtec Instruments, Heerhugowaard, the Netherlands).

[3] = tested on: MERS-CoV virus "NRCE-HKU270"; assay: microbe, parasite or virus in culture; settings: Middle East respiratory syndrome-related coronavirus, Vero C1008, read-out: IC50 (half-maximal inhibitory concentration)
[4] = tested on: NRC-03-nhCoV (SARS-CoV-2) in Vero-E6 cells; assay: Mode of antiviral action, plaque infectivity reduction assay (adsorption, replication, virucidal)
Experimental: To investigate whether the tested compound with high selectivity index and antiviral activity against NRC-03-nhCoV affect (a) viral adsorption, (b) viral replication or (c) viricidal effect, a plaque infectivity reduction assay was performed according to the following protocols: • (a) Viral adsorption mechanism
The viral adsorption mechanism was assayed according to a protocol by Zhang et al. with minor modifications. Vero-E6 cells were cultivated in a 6-well plate (10^5 cells/mL) for 24 h at 37 °C. Each tested drug was applied in 500 µL of medium without supplements and co-incubated with the cells for 2 h at 4 °C. The non-absorbed drug in the applied inocula was removed by washing cells three times with 1x PBS. The NRC-03-nhCoV was diluted to a countable range “10^−4” and co-incubated with the pretreated cells. About 1 h post-incubation, the inocula were removed and 3 mL of agarose overlay (1:1 mixture of warmed 2× plaque media and a stock solution of heated 2% agarose) were added. The plates were kept at room temperature to solidify and then incubated at 37 °C to allow the formation of viral plaques. The plaques were fixed using 10% formaldehyde, stained using crystal violet (1% crystal violet in 20% ethanol and distilled H2O), washed with rinse water and dried to calculate the percentage reduction in plaque formation compared to control wells, which comprised untreated Vero-E6 cells directly infected with NRC-03-nhCoV.
The impact of the tested drug on viral replication was determined as previously described. Vero-E6 cells were cultivated in a 6-well plate (10^5 cell/mL) for 24 h at 37 °C. The NRC-03-nhCoV of the countable range was inoculated directly to the cells and incubated for 1 h at 37 °C. The inocula containing the non-adsorbed virus were removed by washing infected cell monolayers three times with 1× PBS. The analyzed compound was then applied in varying concentrations to infected cells for another 1 h contact time at 37 °C. After removing the inocula containing the tested drug, agarose overlay were added to the cells. […]

CC1(C)CCC2(C(=O)OCc3cc(-c4ccc(Cl)cc4)no3)CCC3(C)C(=CCC4C5(C)CC(O)C(O)C(C)(C)C5CCC43C)C2C1 (stereo not drawn) [Compound 17, (3-(4-chlorophenyl)isoxazol-5-yl) methyl-(2α,3β)-2,3-dihydroxyolean-12-en-28-oate] showed a CC50 at 72 h [1] of 142 µM, an IC50 [2] of 4.12 µM and an IC50 [3] of 6.25 µM. For the same molecule, the “effect on viral adsorption” value ([4]; Vero-E6 cells pretreated with compound 2 h at 4 °C) was “efficiently impair viral replication and adsorption”, the “effect on viral replication” value ([4]; compound applied to infected Vero-E6 cells after adsorption) was “efficiently impair viral replication” and the virucidal effect ([4]; virus mixed with compound 1 h before infection of Vero-E6) was “virucidal effect”.
